Measurements taken from US20230075925A1, “NON-PERIPHERAL QUATERNARY AMMONIUM-MODIFIED ZINC PHTHALOCYANINE AND PREPARATION METHOD AND USE THEREOF” (FUZHOU UNIVERSITY, priority 2020, published 2023).

Tests used:
[1] = system: human cervical cancer cells Hela; assay: Dark toxicity and photodynamic activity on Hela cells (MTT cell viability); format: cell-based; conditions: 4 μM
Protocol: The non-peripheral quaternary ammonium-modified zinc phthalocyanine prepared in Example 1 was dissolved in a 1% castor oil derivative (Cremophor EL, wt %) aqueous solution to prepare a 0.1 mM photosensitizer. The dark toxicity and photodynamic activity of the photosensitizer were tested on human cervical cancer cells Hela.
0.1 mM or 0.2 mM of the photosensitizer was diluted into a cell medium to prepare a cell medium containing zinc phthalocyanine complexes at different concentrations. The cancer cells were cultured in the medium containing different concentrations of zinc phthalocyanine complexes for 2 h; after staining, the medium was discarded; and after washing with PBS, the cells were added into a new medium (without zinc phthalocyanine complexes). Illumination experiment group: the cells were irradiated with red light for 30 min at a power of irradiated light at 15 mW cm^−2 using red light with a wavelength greater than 600 nm as an excitation light source; non-illumination control group: the cells were placed in the dark for 30 min. After illumination or non-illumination, a cell viability was examined by MTT. The specific experimental steps referred to “Bioorganic & Medicinal Chemistry Letters, 2006, 16, 2450-2453”. […]

B16-F10 cells = assay: Tumor recurrence (immune memory) after re-injection of B16-F10 cells following combination therapy; format: in vivo, ICR mouse; conditions: combination with PD-L1 antibody; 1×10^6 B16-F10 cells injected on 7th day after therapy, observed 21 d, 5 mice
Excerpt: More importantly, the mice treated with a combination of the zinc phthalocyanine in Example 1 and the PD-L1 antibody have an immune memory effect, which can effectively prevent tumor recurrence. On a 7th day after the combination therapy of zinc phthalocyanine in Example 1 and PD-L1 antibody, 1×10^6 B16-F10 cells were subcutaneously injected into a left ventral side of each ICR mouse (5 mice in each group), and the mice were continued to be observed for 21 d. […] However, the mice in remaining control groups are observed to have obvious melanoma regrowth, and no ability is observed to prevent tumor recurrence.

[2] = system: melanoma cells B16-F10 tumors (proximal and distal); assay: PDT / anti-PD-L1 combination therapy in bilateral B16-F10 tumor-bearing mouse model (tumor inhibition rate); format: in vivo; conditions: for tumor inhibition rate on proximal tumors (illuminated tumors): PDT group (phthalocyanine+illumination), 100 μL of 200 μM, 685 nm 15 mW/cm^2 5 min, 14 days
Protocol: A bilateral tumor-bearing mouse model of melanoma cells B16-F10 (proximal and distal) was established. During PDT, the proximal referred to an illuminated side, and the distal referred to a non-illuminated side. The distribution and metabolism of photosensitizers in the tumor-bearing mouse were investigated by a small animal fluorescence imager and a tissue extraction method, and PDT was conducted under optimal conditions. The following 5 groups of experiments were set up, with 5 mice in each group: a PBS control group; an anti-PD-L1 antibody treatment group; a simple phthalocyanine (no illumination) treatment group; a phthalocyanine+illumination treatment group, namely a PDT group; and a phthalocyanine+illumination+anti-PD-L1 antibody treatment group, namely a combination therapy group. The anti-PD-L1 antibody was purchased from BioX cell.
In the combination therapy group, the PDT group and the simple photosensitizer group, 100 μL of a phthalocyanine compound (at a concentration of 200 μM, diluted with 0.5% CEL) was administered to each mouse. The combination therapy group and the PDT group were irradiated by a laser with a wavelength of 685 nm (at an irradiation power of 15 mW/cm^2 for 5 min) on the right tumor (proximal tumor) 8 h to 12 h after the administration. The combination therapy group was administered at 50 μg of PD-L1 antibody/mouse immediately after laser treatment, and the antibody group was administered 50 μg of PD-L1 antibody/mouse at the same time. One treatment was given on the first and fourth day separately.
From the first treatment, a body weight and a tumor volume of all mice were measured every other day, and a tumor size was calculated according to a formula: tumor volume=tumor length×width×height×π/6; after 14 consecutive days of observation, a tumor inhibition rate of each experimental group was calculated.

Compound	cancer cells killed under red light irradiation ([1]; red light 15 mW cm^−2 for 30 min)	dark toxicity (killing and growth inhibition of Hela cells without irradiation) ([1]; without irradiation, 2 h incubation)	effective rate in preventing recurrence (B16-F10 cells)	tumor inhibition rate on proximal tumors (illuminated tumors) [2]	tumor inhibition rate on distal tumors (unilluminated tumors) ([2]; combination therapy group: phthalocyanine+illumination+anti-PD-L1 antibody (50 μg/mouse))	effect on in situ tumors ([2]; combined with immune checkpoint blocker PD-L1 antibody)
C[N+](C)(C)CCc1ccc(Oc2cccc3c4nc5nc(nc6nc(nc7[n-]c(nc([n-]4)c23)c2ccccc72)-c2ccccc2-6)-c2ccccc2-5)cc1.[I-].[Zn+2] [Example 1, 1-[4-(N,N,N-trimethyl-2-aminoethyl)phenoxy] zinc phthalocyanine iodide]	100%	no dark toxicity	80%	51%	90%	completely remove in situ tumors
1-[4-(aminoethyl)phenoxy] zinc phthalocyanine [Comparative Example 1, reference compound]	–	–	–	69%	–	–
